Residues, ends and D or L forms follow the SMILES beside them. No end group written: not given here. *: point of attachment. Palmitoyl = CCCCCCCCCCCCCCCC(=O)*
Legend:
[1] = Half-life of polypeptides in plasma at 37° C. (HPLC); assay type: in vitro ADME; conditions: 800 μg/ml, 20 μl injected on HPLC
Description: Survey on the half-life of polypeptides in plasma at 37° C. after modification. Preparation of blood drug samples: after crude drug (volume V) (800 ug/ml) +1V plasma were mixed and diluted with 2V water evenly, incubated for 0, 5, 30 min at 37° C. respectively, immediately heated at 80° C. for 30 min; the negative control: after 1V plasma were diluted and mixed with 3 V water evenly, and heated for 30 min at 80° C. The positive control group: after 1V crude drug (800 ug/ml) were diluted and mixed evenly with 3V water, heated for 30 min at 80° C. The samples were the modified products, […] at 14000 rpm for 10 min. The supernatant was fetched for HPLC analysis with the injection size of 20 ul.

Bel-7402 tumor cells = assay: Binding of FITC labeled polypeptides to integrin-expressing tumor cells by flow cytometry; parameters: unit not given here; conditions: FITC labeled polypeptide, dosage 1 μg/μl, Bel-7402 cells, 25 min
Description: Analysis of the binding of polypeptide s and integrin by flow cytometry. Bel-7402 tumor cells were used, which can express integrin. The cells were cultured in a 24-well plate, and the cells were collected and washed with ice-cold PBS twice. Before labeling, the cells were suspended in PBS +1% BSA, maintained for 30 min, added with 1 μl FITC labeled polypeptide s (P1, P2, P3, P4, P5, P6, P7, P8, P9, P10, P11, P12, P13, P14, P15, P16, RGD and ES-2) for reaction for 25 min. After labeling, the cells were collected and washed twice with PBS, suspended again in 400 μl PBS and analysis was conducted with a flow cytometry (Becton Dickinson, USA). FITC fluorescence was determined at FL1 channel The cells with FITC feature would be further analyzed.

B16F10 melanoma cells = assay: In vivo anti-tumor test, B16F10 melanoma; conditions: B16F10 in C57BL/6 mice, 5 mg/kg/d contralateral subcutaneous injection, 9th day
Description: The cultured B16F10 melanoma cells were treated with 0.05% trypsin, centrifuged at 1000 rpm for 5 min, suspended again in PBS, inoculated subcutaneously with 0.1 ml of 5×10^5 cells at the body sides of C57BL/6 mice (6-8 weeks). When the average tumor size reached 200 mm3-300 mm3, the mice were randomly divided into two groups, 7 mice for each group, of which, one group of mice were treated with RGD-ED, and the other group were treated with ED not containing RGD, with the doses of 5 mg/kg/d for the two groups, and the control group of mice were subject to PBS injection. The treatment method was contralateral subcutaneous injection of the inoculated tumors.

NIH 3T3 cells = assay: Cell proliferation analysis on non-endothelial cells; assay type: cell-based; conditions: non-endothelial NIH 3T3 cells, 48 h
Description: The culture of BCE cells and NIH 3T3 cells, method: the culture solution DMEM contained 10% inactivated calf serum (BCS), 1% antibiotics and 3 ng/ml bFGF. Cell proliferation analysis method is as follows: washed the cells with PBS, digested with trypsin, added with culture solution suspension cells and centrifuged and collected cells, and regulated the cell concentrations to 25,000 cells/ml. The cells were moved to 6-well plates (0.5 ml/well) and cultured for 24 h. Replaced the culture medium as 1 ml DMEM, 5% BCS, 1% antibiotics, 1 ng/ml bFGF. Different doses of samples were added to each hole, and further cultured for 48 h, digested the cells with trypsase, re-suspended in PBS, fixed with 70% ice-cold ethanol and stained with 7-AAD, and then conducted analysis with flow cytometry.

CAMs = assay: CAM analysis of anti-angiogenic activity; assay type: in vivo, chick
Description: To detect the in vivo anti-angiogenic activity, CAM analysis was carried out. All the tests were carried out on the ultra-clean platform under sterile conditions. The 6-day disinfected chick embryos were cultured under the condition of 37° C., 90% humidity. After 2 days, the top of each egg was punched and the reagents were dripped into the sterile Whatman filter paper, then put on the CAMs vascular clustered area, cultivated for 48 hours, and observed the chick embryos and CAMs and took pictures.

[2] = system: human liver cancer SGC7901; assay: In vivo anti-tumor test, SGC7901 xenograft; conditions: SGC7901 in nude mice, 3 mg/kg/d contralateral subcutaneous injection, 10th day
Description: (§1) The cultured human liver cancer SGC7901 was treated with 0.05% trypsin, centrifuged at 1000 rpm for 5 min, suspended again in PBS, inoculated subcutaneously with 0.1 ml of 5×10^5 cells on the body sides of nude mice (6-8 weeks). When the average tumor size reached 100 mm^3-200 mm^3, the mice were randomly divided into three groups, 7 mice for each group, of which, one group of mice were treated with RGD-ED, one group were treated with RGD-ED modified with liposome, and the third group were treated with RGD-ED modified with polyethylene glycol, with the doses of 3 mg/kg/d for the three groups, and the control group of mice were subject to PBS injection. The treatment method was contralateral subcutaneous injection of the inoculated tumors.
as §1, with “with liposome-modified RGD-ED,” for “with RGD-ED modified with liposome,”, “with” for “with RGD-ED modified with”, “polyethylene glycol-modified RGD-ED,” for “polyethylene glycol,”, “injection. […]” for “injection. The treatment method was contralateral subcutaneous injection of the inoculated tumors.”

Row | Molecule | Binding Value (Bel-7402 tumor cells) | other results
1 | CCCCCCCCCCCCCCCC(=O)N[C@@H](CCCNC(=N)N)C(=O)NCC(=O)N[C@@H](CC(=O)O)C(=O)NCC(=O)NCC(=O)NCC(=O)NCC(=O)N[C@H](C(=O)N[C@H](C(=O)N[C@@H](CCCNC(=N)N)C(=O)N[C@@H](CCCNC(=N)N)C(=O)N[C@@H](C)C(=O)N[C@@H](CC(=O)O)C(=O)N[C@@H](CCCNC(=N)N)C(=O)N[C@@H](C)C(=O)N[C@@H](C)C(=O)N[C@H](C(=O)N1CCC[C@H]1C(=O)O)C(C)C)C(C)C)[C@@H](C)CC [Palmitic acid-modified substance] (Palmitoyl-RGDGGGGIVRRADRAAVP-OH; C-terminus assumed) | – | half-life [1]: 12 min
2 | ACDCRGDCFCIVRRADRAAVP (cysteine pairing not given here) [P10] | 63.28 | –
3 | ACDCRGDCFCIVRRADRAAVPACDCRGDCFC (cysteine pairing not given here) [P13] | 59.25 | –
4 | Ala-Cys-Asp-Cys-Arg-Gly-Asp-Cys-Phe-Cys-Ile-Val-Arg-Arg-Ala-Asp-Arg-Ala-Ala-Val-Pro-linker-Ala-Cys-Asp-Cys-Arg-Gly-Asp-Cys-Phe-Cys [P15] | 64.11 | –
5 | Ala-Cys-Asp-Cys-Arg-Gly-Asp-Cys-Phe-Cys-linker-Ile-Val-Arg-Arg-Ala-Asp-Arg-Ala-Ala-Val-Pro [P9] | 66.04 | –
6 | Ala-Cys-Asp-Cys-Arg-Gly-Asp-Cys-Phe-Cys-linker-Ile-Val-Arg-Arg-Ala-Asp-Arg-Ala-Ala-Val-Pro-Ala-Cys-Asp-Cys-Arg-Gly-Asp-Cys-Phe-Cys [P14] | 58.32 | –
7 | Ala-Cys-Asp-Cys-Arg-Gly-Asp-Cys-Phe-Cys-linker-Ile-Val-Arg-Arg-Ala-Asp-Arg-Ala-Ala-Val-Pro-linker-Ala-Cys-Asp-Cys-Arg-Gly-Asp-Cys-Phe-Cys [P16] | 66.12 | –
8 | Arg-Gly-Asp-Ile-Val-Arg-Arg-Ala-Asp-Arg-Ala-Ala-Val-Pro-linker-Arg-Gly-Asp [P7] | 60.25 | –
9 | Arg-Gly-Asp-linker-Ile-Val-Arg-Arg-Ala-Asp-Arg-Ala-Ala-Val-Pro-Arg-Gly-Asp [P8] | 58.30 | –
10 | Arg-Gly-Asp-linker-Ile-Val-Arg-Arg-Ala-Asp-Arg-Ala-Ala-Val-Pro-linker-Arg-Gly-Asp [P6] | 60.27 | –
11 | IVRRADRAAVP [ED, reference compound] | 18.35 | tumor inhibition rate (B16F10 melanoma cells): 28%
12 | IVRRADRAAVPACDCRGDCFC (cysteine pairing not given here) [P12] | 67.28 | –
13 | IVRRADRAAVPRGD [P4] | 60.13 | –
14 | Ile-Val-Arg-Arg-Ala-Asp-Arg-Ala-Ala-Val-Pro-linker-Ala-Cys-Asp-Cys-Arg-Gly-Asp-Cys-Phe-Cys [P11] | 60.20 | –
15 | Ile-Val-Arg-Arg-Ala-Asp-Arg-Ala-Ala-Val-Pro-linker-Arg-Gly-Asp [P3] | 58.96 | –
16 | RGDGGGGIVRRADRAAVP [P1] | 63.21 | half-life [1]: 7 min
17 | RGDIVRRADRAAVP [P2] | 62.15 | –
18 | RGDIVRRADRAAVPRGD [P5] | 59.40 | –
19 | arginine-glycine-aspartic acid [RGD, reference compound] | 59.45 | –
20 | designed angiogenesis inhibitor: ED polypeptide joined to a sequence containing Arg-Gly-Asp, expressed recombinantly in E. coli; exact sequence not stated [RGD-ED] | – | inhibitory effect on NIH 3T3 cell proliferation (NIH 3T3 cells): no inhibitory effect; inhibition of neovascularization and angiogenesis in CAM (CAMs; 0.05 μg, 0.1 μg and 0.2 μg, 48 hours): significantly inhibit; chick embryo death in CAM test (CAMs; 0.5 μg): cause chick embryo death; inhibition of angiogenesis in CAM (CAMs; 0.5 μg, 48 hours): completely inhibit; tumor inhibition rate (B16F10 melanoma cells): 58%; tumor inhibition rate [2]: 68%
